Results taken from patent US20250179073A1, “TRICYCLIC HETEROCYCLE COMPOUNDS AS IAP ANTAGONISTS” (Ascentage Pharma (Suzhou) Co., Ltd., priority 2022, published 2025).

What was measured:
MDA-MB-231 cells = test: Cell proliferation assay (CellTiter-Glo), MDA-MB-231; type: cell-based; conditions: Homo sapiens, MDA-MB-231, 72 h, 72 h treatment, Celltiter-Glo luminescence
Method in brief: (§1)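 MDA-MB-231 (RPMI-1640/10% FBS) and EVSA-T (MEM/10% FBS) cells, 10000 cells/well, exposed 72 h to compound at […]. Viability read by CellTiter-Glo luminescence after 15 min at room temperature. IC50 from control-normalised curve fitting.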

EVSA-T cells = test: Cell proliferation assay (CellTiter-Glo), EVSA-T; type: cell-based; conditions: Homo sapiens, EVSA-T, 72 h, 72 h treatment, Celltiter-Glo luminescence
Method in brief: as §1

| SMILES | IC50 (MDA-MB-231 cells) | IC50 (EVSA-T cells) |
| --- | --- | --- |
| C[C@@H]1CN(CC(=O)N2CC(C)(C)c3c2cc(Cc2ccc(F)cc2)c2nc(C(F)(F)F)cn32)[C@@H](CN2CCN(C3COC3)C[C@H]2C)CN1 [Compound 181, 1-(4-(4-fluorobenzyl)-8,8-dimethyl-2-(trifluoromethyl)-7,8-dihydro-6H-imidazo[1,2-a]pyrrolo[2,3-e]pyridin-6-yl)-2-((2R,5R)-5-methyl-2-(((R)-2-methyl-4-(oxetan-3-yl)piperazin-1-yl)methyl)piperazin-1-yl)ethan-1-one] | 0.097 µM | 0.015 µM |
| C[C@@H]1CN(CC(=O)N2CC(C)(C)c3c2cc(Cc2ccc(F)cc2)c2nc(N4CCS(=O)(=O)CC4)nn32)[C@@H](CN2CCOC[C@H]2C)CN1 [Compound 199, 1-(2-(1,1-dioxidothiomorpholino)-4-(4-fluorobenzyl)-8,8-dimethyl-7,8-dihydro-6H-pyrrolo[2,3-e][1,2,4]triazolo[1,5-a]pyridin-6-yl)-2-((2R,5R)-5-methyl-2-(((R)-3-methylmorpholino)methyl)piperazin-1-yl)ethan-1-one] | 0.02 µM | 0.006 µM |
| C[C@@H]1CN(CC(=O)N2CC(C)(C)c3c2cc(Cc2ccc(F)cc2)c2nn(CC(C)(C)O)c(=O)n32)[C@@H](CN2CC3CCC(C2)O3)CN1 [Compound 265, 6-(2-((2R,5R)-2-((8-oxa-3-azabicyclo[3.2.1]octan-3-yl)methyl)-5-methylpiperazin-1-yl)acetyl)-4-(4-fluorobenzyl)-2-(2-hydroxy-2-methylpropyl)-8,8-dimethyl-2,6,7,8-tetrahydro-1H-pyrrolo[2,3-e][1,2,4]triazolo[4,3-a]pyridin-1-one] | 0.041 µM | 0.0268 µM |
| C[C@@H]1CN(CC(=O)N2CC(C)(C)c3c2cc(Cc2ccc(F)cc2)c2nc(N4CC5CC(C4)O5)nn32)[C@@H](CN2CCOC[C@H]2C)CN1 [Compound 189, 1-(2-(6-oxa-3-azabicyclo[3.1.1]heptan-3-yl)-4-(4-fluorobenzyl)-8,8-dimethyl-7,8-dihydro-6H-pyrrolo[2,3-e][1,2,4]triazolo[1,5-a]pyridin-6-yl)-2-((2R,5R)-5-methyl-2-(((R)-3-methylmorpholino)methyl)piperazin-1-yl)ethan-1-one] | 0.01 µM | 0.002 µM |
| C[C@@H]1CN(CC(=O)N2CC(C)(C)c3c2cc(Cc2ccccc2F)c2ncnn32)[C@@H](CN2CCOC[C@H]2C)CN1 [Compound 38, 1-(4-(2-fluorobenzyl)-8,8-dimethyl-7,8-dihydro-6H-pyrrolo[2,3-e][1,2,4]triazolo[1,5-a]pyridin-6-yl)-2-((2R,5R)-5-methyl-2-(((R)-3-methylmorpholino)methyl)piperazin-1-yl)ethan-1-one] | 0.15 µM | 0.006 µM |
| C[C@@H]1CN(CC(=O)N2CC(C)(C)c3c2cc(Cc2ccc(F)cc2)c2ncnn32)[C@@H](CN2CCOC3CC32)CN1 (stereo partly drawn) [Compound 202, 2-((2S,5R)-2-((2-oxa-5-azabicyclo[4.1.0]heptan-5-yl)methy 1)-5-methylpiperazin-1-yl)-1-(4-(4-fluorobenzyl)-8,8-dimethyl-7,8-dihydro-6H-pyrrolo[2,3-e][1,2,4]triazolo[1,5-a]pyridin-6-yl)ethan-1-one] | 0.034 µM | 0.017 µM |
| C[C@@H]1CN(CC(=O)N2CC(C)(C)c3c2cc(Cc2ccc(F)cc2)c2nn(C4CC(O)C4)c(=O)n32)[C@@H](CN2CCOC[C@H]2C)CN1 (stereo partly drawn) [Compound 271, 4-(4-fluorobenzyl)-2-(3-hydroxycyclobutyl)-8,8-dimethyl-6-(2-((2R,5R)-5-methyl-2-(((R)-3-methylmorpholino)methyl)piperazin-1-yl)acetyl)-2,6,7,8-tetrahydro-1H-pyrrolo[2,3-e][1,2,4]triazolo[4,3-a]pyridin-1-one] | 0.022 µM | 0.0022 µM |
| Cc1nc2c(Cc3ccc(F)cc3)cc3c(n2c1C)C(C)(C)CN3C(=O)CN1C[C@@H](C)NC[C@@H]1CN1CCOC[C@H]1C [Compound 109, 1-(4-(4-fluorobenzyl)-1,2,8,8-tetramethyl-7,8-dihydro-6H-imidazo[1,2-a]pyrrolo[2,3-e]pyridin-6-yl)-2-((2R,5R)-5-methyl-2-(((R)-3-methylmorpholino)methyl)piperazin-1-yl)ethan-1-one] | 0.061 µM | 0.009 µM |
| C[C@@H]1CN(CC(=O)N2CC(C)(C)c3c2cc(Cc2ccc(F)cc2)c2ncc(Br)n32)[C@@H](CN2CCOC[C@H]2C)CN1 [Compound 119, 1-(1-bromo-4-(4-fluorobenzyl)-8,8-dimethyl-7,8-dihydro-6H-imidazo[1,2-a]pyrrolo[2,3-e]pyridin-6-yl)-2-((2R,5R)-5-methyl-2-(((R)-3-methylmorpholino)methyl)piperazin-1-yl)ethan-1-one] | 0.1 µM | 0.006 µM |
| CCNC(=O)c1nc2c(Cc3ccc(F)cc3)cc3c(n2n1)C(C)(C)CN3C(=O)CN1C[C@@H](C)NC[C@@H]1CN1CCOC[C@H]1C [Compound 259, N-ethyl-4-(4-fluorobenzyl)-8,8-dimethyl-6-(2-((2R,5R)-5-methyl-2-(((R)-3-methylmorpholino)methyl)piperazin-1-yl)acetyl)-7,8-dihydro-6H-pyrrolo[2,3-e][1,2,4]triazolo[1,5-a]pyridine-2-carboxamide] | 0.087 µM | 0.0158 µM |
| C[C@@H]1CN(CC(=O)N2CC(C)(C)c3c2cc(Cc2ccc(F)cc2)c2nn(C4CC(C)(O)C4)c(=O)n32)[C@@H](CN2CCOC[C@H]2C)CN1 (stereo partly drawn) [Compound 272, 4-(4-fluorobenzyl)-2-(3-hydroxy-3-methylcyclobutyl)-8,8-dimethyl-6-(2-((2R,5R)-5-methyl-2-(((R)-3-methylmorpholino)methyl)piperazin-1-yl)acetyl)-2,6,7,8-tetrahydro-1H-pyrrolo[2,3-e][1,2,4]triazolo[4,3-a]pyridin-1-one] | 0.021 µM | 0.002 µM |
| C[C@@H]1CN(CC(=O)N2CC(C)(C)c3c2cc(Cc2ccc(F)cc2)c2cncn32)[C@@H](CN2CCOC[C@H]2C)CN1 [Compound 1, 1-(4-(4-fluorobenzyl)-8,8-dimethyl-7,8-dihydro-6H-imidazo[1,5-a]pyrrolo[2,3-e]pyridin-6-yl)-2-((2R,5R)-5-methyl-2-(((R)-3-methylmorpholino)methyl)piperazin-1-yl)ethan-1-one] | 0.077 µM | 0.007 µM |
| C[C@@H]1CN(CC(=O)N2CC(C)(C)c3c2cc(Cc2ccc(F)cc2)c2ncnn32)[C@@H](CN2Cc3cccnc3C2=O)CN1 [Compound 98, 6-(((2R,5R)-1-(2-(4-(4-fluorobenzyl)-8,8-dimethyl-7,8-dihydro-6H-pyrrolo[2,3-e][1,2,4]triazolo[1,5-a]pyridin-6-yl)-2-oxoethyl)-5-methylpiperazin-2-yl)methyl)-5,6-dihydro-7H-pyrrolo[3,4-b]pyridin-7-one] | 0.072 µM | 0.008 µM |
| C[C@@H]1CN(CC(=O)N2CC(C)(C)c3c2cc(Cc2ccc(F)cc2)c2ccnn32)[C@@H](CN2CCOC[C@H]2C)CN1 [Compound 148, 1-(4-(4-fluorobenzyl)-8,8-dimethyl-7,8-dihydro-6H-pyrazolo[1,5-a]pyrrolo[2,3-e]pyridin-6-yl)-2-((2R,5R)-5-methyl-2-(((R)-3-methylmorpholino)Methyl)piperazin-1-yl)ethan-1-one] | 0.1 µM | 0.006 µM |
